Experimental data published in patent publication US20110003847A1, “Prasugrel Salts with Improved Properties” (HELM AG, priority 2008, published 2011).
Structures can show the parent of a compound that is named as a salt.

What was measured:
[1] = Hygroscopicity of the salts; format: physicochemical
[2] = Corrosiveness of the salts; format: physicochemical
mammals = experiment: Toxicity of prasugrel salts with regard to mammals; format: in vivo; conditions: compared with other salts
Excerpt: Although the exact reason for this low toxicity hat not yet been found, it is assumed that this effect is due to a different solubility of the salts. The toxicity and safety margin of prasugrel can be controlled by varying the solubility of its salts.

[3] = Storage of tablets at room temperature in an open container (discoloration); format: physicochemical; conditions: tablets stored 9 days at room temperature (15-25° C.) in an open container
Description: Tablets were stored for 9 days at room temperature (15-25° C.) in an open container.

Compound | hygroscopicity [1] | corrosiveness [2] | toxicity (mammals) | discoloration of tablets on storage [3]
CC(=O)Oc1cc2c(s1)CCN(C(C(=O)C1CC1)c1ccccc1F)C2.O=S(=O)(O)c1ccc2ccccc2c1 (stereo not shown) [prasugrel napsylate, Prasugrel-2-Napsylate] | not hygroscopic | not corrosive |  | 
Prasugrel-Besylate [prasugrel besylate] | not hygroscopic |  | very low toxicity | 
CC(=O)Oc1cc2c(s1)CCN(C(C(=O)C1CC1)c1ccccc1F)C2.O=S(=O)(O)c1cccc2c(S(=O)(=O)O)cccc12 (stereo not shown) [prasugrel napadisylate, Prasugrel-1,5-Dinapsylate] | not hygroscopic | not corrosive |  | 
CC(=O)Oc1cc2c(s1)CCN(C(C(=O)C1CC1)c1ccccc1F)C2 (stereo not shown) [prasugrel-HCl, Prasugrel-Hydrochloride] |  |  |  | clear discoloration
